Data from publication PMC8703823, “The Role of TRPA1 Channels in the Central Processing of Odours Contributing to the Behavioural Responses of Mice” (Pharmaceuticals, 2021).

What was measured:
mTRPA1 = molecular target: T1, mTRPA1 (Mus musculus, UniProt Q8BLA8); experiment: Fluo-4 AM calcium influx, flow cytometry, CHO cells; assay type: cell-based
T1 construct: gene Trpa1; stably overexpressed in CHO cells

hTRPA1 = molecular target: T2, hTRPA1 (Homo sapiens, UniProt O75762); experiment: as above; assay type: cell-based
T2 construct: gene TRPA1; stably overexpressed in CHO cells
T2 sequence (O75762 whole entry): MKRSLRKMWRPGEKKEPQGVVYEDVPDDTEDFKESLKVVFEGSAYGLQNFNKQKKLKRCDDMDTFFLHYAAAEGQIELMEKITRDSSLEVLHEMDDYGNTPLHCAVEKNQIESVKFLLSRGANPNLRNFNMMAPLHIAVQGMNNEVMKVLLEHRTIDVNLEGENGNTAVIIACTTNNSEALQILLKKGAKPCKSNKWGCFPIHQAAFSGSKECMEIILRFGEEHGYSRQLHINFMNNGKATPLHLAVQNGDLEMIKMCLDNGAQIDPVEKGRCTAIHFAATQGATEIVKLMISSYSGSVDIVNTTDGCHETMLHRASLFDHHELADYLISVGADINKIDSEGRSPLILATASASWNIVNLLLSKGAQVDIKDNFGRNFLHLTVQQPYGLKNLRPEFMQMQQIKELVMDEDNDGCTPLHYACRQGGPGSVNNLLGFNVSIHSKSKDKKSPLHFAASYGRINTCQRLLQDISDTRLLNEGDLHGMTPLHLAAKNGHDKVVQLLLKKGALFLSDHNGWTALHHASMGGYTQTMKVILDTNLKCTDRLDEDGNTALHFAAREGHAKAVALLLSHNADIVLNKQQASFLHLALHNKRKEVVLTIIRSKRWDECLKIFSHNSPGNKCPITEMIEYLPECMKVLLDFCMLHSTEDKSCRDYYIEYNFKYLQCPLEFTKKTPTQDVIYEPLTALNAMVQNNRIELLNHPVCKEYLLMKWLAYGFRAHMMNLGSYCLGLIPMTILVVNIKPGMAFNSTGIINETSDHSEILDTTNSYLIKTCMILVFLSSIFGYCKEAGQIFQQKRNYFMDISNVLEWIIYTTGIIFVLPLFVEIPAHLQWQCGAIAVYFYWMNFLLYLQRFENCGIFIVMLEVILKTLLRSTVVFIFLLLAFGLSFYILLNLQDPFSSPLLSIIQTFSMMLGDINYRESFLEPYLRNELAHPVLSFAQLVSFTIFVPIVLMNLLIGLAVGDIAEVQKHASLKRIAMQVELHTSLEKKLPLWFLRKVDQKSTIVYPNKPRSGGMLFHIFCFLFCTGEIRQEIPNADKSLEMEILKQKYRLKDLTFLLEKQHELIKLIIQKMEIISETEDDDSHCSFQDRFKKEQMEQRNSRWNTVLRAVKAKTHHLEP

T1 sequence (Q8BLA8 whole entry): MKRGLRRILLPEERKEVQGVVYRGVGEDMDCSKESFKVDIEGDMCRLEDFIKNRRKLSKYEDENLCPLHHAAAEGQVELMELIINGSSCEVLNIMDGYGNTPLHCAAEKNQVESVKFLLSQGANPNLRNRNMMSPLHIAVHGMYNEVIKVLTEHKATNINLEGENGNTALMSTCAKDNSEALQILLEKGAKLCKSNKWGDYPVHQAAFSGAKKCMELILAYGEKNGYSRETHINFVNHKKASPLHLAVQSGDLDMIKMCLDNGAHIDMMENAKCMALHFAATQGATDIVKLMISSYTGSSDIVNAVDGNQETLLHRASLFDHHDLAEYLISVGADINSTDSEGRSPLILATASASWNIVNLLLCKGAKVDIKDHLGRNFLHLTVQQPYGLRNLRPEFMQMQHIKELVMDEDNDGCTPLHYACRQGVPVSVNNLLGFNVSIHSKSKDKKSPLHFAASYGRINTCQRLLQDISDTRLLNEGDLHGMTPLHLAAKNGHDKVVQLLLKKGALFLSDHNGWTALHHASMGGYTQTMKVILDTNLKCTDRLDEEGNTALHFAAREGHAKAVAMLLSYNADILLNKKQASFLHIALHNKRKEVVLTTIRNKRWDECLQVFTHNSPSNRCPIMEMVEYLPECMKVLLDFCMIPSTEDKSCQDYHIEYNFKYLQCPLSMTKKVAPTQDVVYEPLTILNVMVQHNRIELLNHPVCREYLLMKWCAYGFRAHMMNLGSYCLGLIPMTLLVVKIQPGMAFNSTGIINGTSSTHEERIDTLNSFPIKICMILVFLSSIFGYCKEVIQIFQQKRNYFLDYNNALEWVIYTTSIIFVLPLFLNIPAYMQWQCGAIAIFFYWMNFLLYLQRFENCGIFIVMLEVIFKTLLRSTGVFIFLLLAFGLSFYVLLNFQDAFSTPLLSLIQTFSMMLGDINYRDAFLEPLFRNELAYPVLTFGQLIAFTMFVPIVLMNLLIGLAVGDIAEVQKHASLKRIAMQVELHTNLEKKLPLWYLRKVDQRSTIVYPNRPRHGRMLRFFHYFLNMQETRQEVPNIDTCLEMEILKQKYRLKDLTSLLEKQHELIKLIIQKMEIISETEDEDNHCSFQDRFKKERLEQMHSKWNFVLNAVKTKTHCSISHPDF

- EC50 (mTRPA1): 4.42 mM
- EC50 (hTRPA1): 5.01 mM
Compound: CC1=NCCS1 [2-MT, 2-methyl-2-thiazoline]
